The values below come from ChEMBL document CHEMBL1151424, “In vitro efficacy of new antifolates against trimethoprim-resistant Bacillus anthracis” (Antimicrob Agents Chemother, 2007).

Assay [1] deals with Bacillus anthracis. In words: Antibacterial activity against Bacillus anthracis Sterne after 16 hrs by modified alamar blue microdilution broth assay. The class given is functional. For orientation: Alamar Blue is a resazurin reagent that responds to reducing activity.
Assay [2] can be described thus: Inhibition of Bacillus cereus recombinant DHFR expressed in Escherichia coli BL21(DE3) assessed as enzyme-dependent NADPH consumption.
Assay [3] has as its target T1, Dihydrofolate reductase (Homo sapiens, UniProt P00374).
T1 sequence (P00374 whole entry): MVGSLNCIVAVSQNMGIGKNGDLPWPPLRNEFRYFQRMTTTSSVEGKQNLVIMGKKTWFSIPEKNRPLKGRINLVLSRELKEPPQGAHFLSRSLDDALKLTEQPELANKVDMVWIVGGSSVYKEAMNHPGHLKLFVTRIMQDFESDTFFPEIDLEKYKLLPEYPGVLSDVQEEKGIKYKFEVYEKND
The assay is described as follows: Inhibition of human recombinant DHFR.

In assay [4] the test system is Bacillus anthracis. The assay is described as follows: Inhibition of histidine-tagged Bacillus anthracis Sterne recombinant DHFR expressed in Escherichia coli BL21 Star (DE3)pLysS up to 3 mins. The conditions noted are these: BL21, 0.05 h.
For assay [5], the system named is Bacillus anthracis. In words: Antibacterial activity against Bacillus anthracis Ames (NR-411) after 16 hrs by modified alamar blue microdilution broth assay. In kind it is functional. The conditions noted are these: Ames NR-411, 16 h.
A short description of assay [6]: Selectivity ratio of IC50 for human recombinant DHFR to IC50 for histidine-tagged Bacillus anthracis Sterne recombinant DHFR.
The subject of assay [7] is Bacillus cereus. The assay is described as follows: Antibacterial activity against Bacillus cereus up to 10 hrs by growth inhibition assay. In kind it is functional.
In assay [8] the target is T2, Dihydrofolate reductase (Rattus norvegicus, UniProt Q920D2).
T2 sequence (Q920D2 whole entry): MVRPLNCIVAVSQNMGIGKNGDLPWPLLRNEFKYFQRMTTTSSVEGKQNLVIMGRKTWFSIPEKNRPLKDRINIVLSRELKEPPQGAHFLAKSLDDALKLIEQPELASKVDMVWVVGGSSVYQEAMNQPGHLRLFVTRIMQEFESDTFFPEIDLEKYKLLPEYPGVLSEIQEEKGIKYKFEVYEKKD
In words: Inhibition of rat DHFR.

≈ marks a conversion by molar mass, not a printed value.

`COc1cc(Cc2cnc(N)nc2N)cc(/C=C/C(=O)N2N=Cc3ccccc3C2c2ccc(O)cc2)c1C(OC)OC` (configuration not stated): in assay [1], the MIC was greater than 128 µg/mL.
For `COc1cc(Cc2cnc(N)nc2N)cc(/C=C/C(=O)N2Cc3ccccc3C=N2)c1OC`, the IC50 in assay [2] came out at 37000 nM. In addition, the MIC in assay [1] was greater than 128 µg/mL.
`COc1cc(Cc2cnc(N)nc2N)cc(OC)c1OC` [TRIMETHOPRIM]: in assay [1], the MIC was greater than 2050 µg/mL.
Take `COc1cc(Cc2cnc(N)nc2N)cc(/C=C/C(=O)N2N=Cc3ccccc3C2c2ccccc2CN(C)C)c1OC` (configuration not stated): the figures for the IC50 in assay [3] and in assay [4] were greater than 42000 nM and 400 nM, respectively. This compound registered an MIC in assay [1] of no more than 128 µg/mL.
On the same counts, the results for `COc1ncc(C2c3ccccc3C=NN2C(=O)/C=C/c2cc(Cc3cnc(N)nc3N)cc(OC)c2OC)c(OC)n1` (configuration not stated) are greater than 22000 nM, 600 nM and no more than 128 µg/mL.
With `COc1cc(Cc2cnc(N)nc2N)cc(CCC(=O)N2N=Cc3ccccc3C2C)c1OC` (configuration not stated), the IC50 in assay [3] is greater than 28000 nM; in assay [2], 37000 nM; in assay [4], 92 nM. Moreover, the MIC in assay [5] and in assay [1] was no more than 64 µg/mL throughout.
As to `COc1cc(Cc2cnc(N)nc2N)cc(/C=C/C(=O)N2N=Cc3ccccc3C2c2ccccc2)c1OC` (configuration not stated), the Ratio IC50 in assay [6] was greater than 348. The compound further registered an MIC50 in assay [7] of 2.6 µg/mL (≈ 4.99 µM). Besides, the IC50 in assay [3] is greater than 16000 nM; in assay [2], 270 nM; in assay [8] it was 25000 nM; in assay [4], 46 nM. The results for the minimum inhibitory concentration (MIC) in assay [5] and in assay [1] were greater than 51.2 µg/mL and no more than 25.6 µg/mL, respectively.
Take `COc1cc(Cc2cnc(N)nc2N)cc(/C=C/C(=O)N2N=Cc3ccccc3C2c2ccc(CO)cc2)c1OC` (configuration not stated): the IC50 in assay [3] was greater than 23000 nM; in assay [4], 97 nM. The same compound came in with a minimum inhibitory concentration (MIC) in assay [1] of no more than 128 µg/mL.
Consider `CCC1c2ccccc2C=NN1C(=O)/C=C/c1cc(Cc2cnc(N)nc2N)cc(OC)c1OC` (configuration not stated), for which the Ratio IC50 in assay [6] is greater than 281. For the same compound, the MIC50 in assay [7] was determined as 2.6 µg/mL (≈ 5.5 µM). Besides, the IC50 in assay [3] was greater than 27000 nM; in assay [2] it was 270 nM; in assay [8], 25000 nM; in assay [4] it was 96 nM. Also, the MIC in assay [5] is no more than 25.6 µg/mL; in assay [1] it was no more than 32 µg/mL.
With `CCCC1c2ccccc2C=NN1C(=O)/C=C/c1cc(Cc2cnc(N)nc2N)cc(O)c1OC` (configuration not stated), the Ratio IC50 in assay [6] stood at 2040. This compound also came in with an MIC50 in assay [7] of 2.6 µg/mL (≈ 5.5 µM). Besides, the half-inhibitory concentration (IC50) in assay [3] worked out at 110000 nM; in assay [2] it was 270 nM; in assay [8], 25000 nM; in assay [4], 54 nM. In addition, the MIC in assay [5] was no more than 16 µg/mL; in assay [1], no more than 12.8 µg/mL.
Turning to `COc1cc(Cc2cnc(N)nc2N)cc(/C=C/C(=O)N2N=Cc3ccccc3C2c2ccccc2)c1OCCN1CCOCC1` (configuration not stated), the IC50 in assay [3] is greater than 21000 nM; in assay [4], 170 nM. Further, the values for the MIC in assay [5] and in assay [1] were no more than 25.6 µg/mL and no more than 32 µg/mL, respectively.
Compound `COC(=O)C(C)(C)C1c2ccccc2C=NN1C(=O)/C=C/c1cc(Cc2cnc(N)nc2N)cc(OC)c1OC` (configuration not stated) came in with an MIC50 in assay [7] of 2.6 µg/mL (≈ 4.77 µM). The IC50 in assay [3] came out at 813000 nM; in assay [2] it was 270 nM; in assay [8], 25000 nM; in assay [4] it was 300 nM. Besides, in assay [1], the MIC is no more than 128 µg/mL.
In the case of `COc1cc(Cc2cnc(N)nc2N)cc(/C=C/C(=O)N2N=Cc3ccccc3C2c2ccc(C)cc2)c1OC` (configuration not stated), the Ratio IC50 in assay [6] was greater than 127. The same compound registered an MIC50 in assay [7] of 2.6 µg/mL (≈ 4.86 µM). Moreover, the IC50 in assay [3] was greater than 19000 nM; in assay [2], 270 nM; in assay [8], 25000 nM; in assay [4], 150 nM. Moreover, the values for the MIC in assay [5] and in assay [1] were no more than 51.2 µg/mL and no more than 64 µg/mL, respectively.
Turning to `CCCCC1c2ccccc2C=NN1C(=O)/C=C/c1cc(Cc2cnc(N)nc2N)cc(OC)c1OC` (configuration not stated), the Ratio IC50 in assay [6] was greater than 118. Further, in assay [7], the MIC50 was determined as 2.6 µg/mL (≈ 5.19 µM). Besides, the IC50 in assay [3] is greater than 20000 nM; in assay [2], 270 nM; in assay [8], 25000 nM; in assay [4], 170 nM. The MIC in assay [5] and in assay [1] was no more than 12.8 µg/mL in each case.
Consider `COc1cc(Cc2cnc(N)nc2N)cc(/C=C/C(=O)N2N=Cc3ccccc3C2c2ccc(O)cc2)c1O` (configuration not stated), for which the MIC in assay [1] was greater than 128 µg/mL.
As to `COc1cc(Cc2cnc(N)nc2N)cc(/C=C/C(=O)N2N=Cc3ccccc3C2C2CCCC2)c1OC` (configuration not stated), the Ratio IC50 in assay [6] was greater than 110. Also, the MIC50 in assay [7] was found to be 2.6 µg/mL (≈ 5.07 µM). For the same compound, the IC50 was greater than 22000 nM in assay [3], 270 nM in assay [2], 25000 nM in assay [8] and 200 nM in assay [4]. Besides, the MIC in assay [5] was no more than 12.8 µg/mL; in assay [1] it was no more than 25.6 µg/mL.
In assay [1], `COc1cc(Cc2cnc(N)nc2N)cc(/C=C/C(=O)N2N=Cc3ccccc3C2c2ccc(O)cc2)c1OC` (configuration not stated) had a minimal inhibitory concentration (MIC) greater than 128 µg/mL.
For `COc1cc(Cc2cnc(N)nc2N)cc(/C=C/C(=O)N2N=Cc3ccccc3C2CCCO)c1OC` (configuration not stated), in assay [7], the MIC50 stood at 2.6 µg/mL (≈ 5.17 µM). Further, the half-maximal inhibitory concentration (IC50) was greater than 25000 nM in assay [3], 270 nM in assay [2], 25000 nM in assay [8] and 120 nM in assay [4]. Besides, the MIC is greater than 102 µg/mL in assay [5] and no more than 64 µg/mL in assay [1].
In the case of `COc1cc(Cc2cnc(N)nc2N)cc(/C=C/C(=O)N2N=Cc3ccccc3C2c2ccc(CO)cc2)c1O` (configuration not stated), the IC50 in assay [3] is greater than 24000 nM; in assay [4] it was 69 nM. The same compound yielded an MIC in assay [1] of no more than 128 µg/mL.
In the case of `COc1cc(Cc2cnc(N)nc2N)cc(/C=C/C(=O)N2N=Cc3ccccc3C2c2ccc(CO)cc2)c1C(OC)OC` (configuration not stated), in assay [1], the minimal inhibitory concentration (MIC) is greater than 128 µg/mL.
In turn, `COc1cc(Cc2cnc(N)nc2N)cc(/C=C/C(=O)N2N=Cc3ccccc3C2c2ccccc2CO)c1OC` (configuration not stated) registered an MIC in assay [1] greater than 128 µg/mL.
On to `COc1cc(Cc2cnc(N)nc2N)cc(/C=C/C(=O)N2N=Cc3ccccc3C2C2CCCCC2)c1OC` (configuration not stated), for which, in assay [7], the MIC50 worked out at 2.6 µg/mL (≈ 4.94 µM). Moreover, the IC50 in assay [3] was greater than 19000 nM; in assay [2] it was 270 nM; in assay [8], 25000 nM; in assay [4], 260 nM. Moreover, the MIC in assay [5] and in assay [1] was no more than 12.8 µg/mL in each case.

One may read the MIC as the smallest concentration in the dilution series that meets the test's criterion for growth inhibition. Low readings indicate greater potency, high ones weaker potency. Usually IC50 stands for the point on the concentration scale where inhibition reaches its midpoint. By MIC50 is commonly meant an inhibitory concentration at the 50% level, which refers to growth in some studies and to a panel of isolates in others.
